Our source for the Kd values is ChEMBL document CHEMBL3991601, “The target landscape of clinical kinase drugs” (Science, 2017).

The source made the active and inactive calls.

Experiment [1] deals with Serine/threonine-protein kinase/endoribonuclease IRE2 (Homo sapiens, UniProt Q76MJ5).
The target of experiment [2] is Tyrosine-protein kinase ABL2 (Homo sapiens, UniProt P42684).
The target of experiment [3] is Rho-associated protein kinase 2 (Homo sapiens, UniProt O75116).
Experiment [4] has as its target Casein kinase I isoform gamma-1 (Homo sapiens, UniProt Q9HCP0).
For experiment [5], the target named is ATP-dependent RNA helicase DDX3X (Homo sapiens, UniProt O00571).
The target in experiment [6] is Chromodomain-helicase-DNA-binding protein 4 (Homo sapiens, UniProt Q14839).
In experiment [7] the target is Mitogen-activated protein kinase kinase kinase kinase 1 (Homo sapiens, UniProt Q92918).
The target in experiment [8] is RAC-alpha serine/threonine-protein kinase (Homo sapiens, UniProt P31749).
A further experiment concerns the target DNA topoisomerase 2-beta (Homo sapiens, UniProt Q02880).
Experiment [9] deals with Bone morphogenetic protein receptor type-1B (Homo sapiens, UniProt O00238).
For experiment [10], the target named is T1, Glycogen phosphorylase, brain form (Homo sapiens, UniProt P11216).
T1 sequence (P11216 whole entry): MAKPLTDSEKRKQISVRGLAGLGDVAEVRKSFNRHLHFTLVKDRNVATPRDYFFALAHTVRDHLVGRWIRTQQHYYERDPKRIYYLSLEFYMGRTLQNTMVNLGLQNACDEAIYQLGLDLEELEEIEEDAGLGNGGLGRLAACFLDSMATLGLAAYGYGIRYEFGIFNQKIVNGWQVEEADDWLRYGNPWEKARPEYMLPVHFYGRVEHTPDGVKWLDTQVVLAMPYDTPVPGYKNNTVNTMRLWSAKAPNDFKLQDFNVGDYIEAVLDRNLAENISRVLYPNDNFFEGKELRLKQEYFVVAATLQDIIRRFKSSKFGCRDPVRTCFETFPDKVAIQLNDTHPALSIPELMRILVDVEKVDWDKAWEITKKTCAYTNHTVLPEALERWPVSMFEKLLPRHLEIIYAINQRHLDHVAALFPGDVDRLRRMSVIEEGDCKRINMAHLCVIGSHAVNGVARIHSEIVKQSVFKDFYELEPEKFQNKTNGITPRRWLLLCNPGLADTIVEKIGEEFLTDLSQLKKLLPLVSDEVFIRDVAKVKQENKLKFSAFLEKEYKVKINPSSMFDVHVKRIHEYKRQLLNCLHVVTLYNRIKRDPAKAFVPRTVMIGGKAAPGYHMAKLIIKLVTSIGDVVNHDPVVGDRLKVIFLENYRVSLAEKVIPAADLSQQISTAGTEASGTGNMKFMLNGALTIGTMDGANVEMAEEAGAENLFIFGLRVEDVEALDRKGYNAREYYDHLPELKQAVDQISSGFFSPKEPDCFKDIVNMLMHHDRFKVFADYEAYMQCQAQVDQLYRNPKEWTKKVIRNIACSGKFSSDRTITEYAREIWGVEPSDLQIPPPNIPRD

Experiment [11] addresses T2, EKC/KEOPS complex subunit TP53RK (Homo sapiens, UniProt Q96S44).
T2 sequence (Q96S44 whole entry): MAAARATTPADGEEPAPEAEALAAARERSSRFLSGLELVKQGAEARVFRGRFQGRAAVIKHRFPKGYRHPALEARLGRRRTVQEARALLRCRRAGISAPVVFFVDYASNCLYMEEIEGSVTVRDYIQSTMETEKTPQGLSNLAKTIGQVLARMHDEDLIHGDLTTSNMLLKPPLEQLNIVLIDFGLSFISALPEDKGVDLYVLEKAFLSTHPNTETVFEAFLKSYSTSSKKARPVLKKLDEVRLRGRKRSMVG

For experiment [12], the target named is T3, Mitogen-activated protein kinase kinase kinase 2 (Homo sapiens, UniProt Q9Y2U5).
T3 sequence (Q9Y2U5 whole entry): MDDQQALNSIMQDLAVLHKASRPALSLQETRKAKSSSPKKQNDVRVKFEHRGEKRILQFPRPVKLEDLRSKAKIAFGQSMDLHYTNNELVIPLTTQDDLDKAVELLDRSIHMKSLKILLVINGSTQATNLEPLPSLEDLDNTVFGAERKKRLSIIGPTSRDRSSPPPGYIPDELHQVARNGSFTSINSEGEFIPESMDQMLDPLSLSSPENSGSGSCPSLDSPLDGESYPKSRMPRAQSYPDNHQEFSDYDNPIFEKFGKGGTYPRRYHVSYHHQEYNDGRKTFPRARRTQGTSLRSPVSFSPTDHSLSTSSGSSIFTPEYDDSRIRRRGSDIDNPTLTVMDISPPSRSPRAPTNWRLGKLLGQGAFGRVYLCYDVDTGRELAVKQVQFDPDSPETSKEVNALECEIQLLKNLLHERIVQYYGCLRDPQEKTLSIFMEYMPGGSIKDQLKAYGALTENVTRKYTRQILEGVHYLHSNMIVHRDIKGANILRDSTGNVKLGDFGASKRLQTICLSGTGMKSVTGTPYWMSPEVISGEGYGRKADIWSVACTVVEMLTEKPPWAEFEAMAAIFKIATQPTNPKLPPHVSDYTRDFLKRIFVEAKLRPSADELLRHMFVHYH

Experiment [13] addresses T4, Membrane-associated tyrosine- and threonine-specific cdc2-inhibitory kinase (Homo sapiens, UniProt Q99640).
T4 sequence (Q99640 whole entry): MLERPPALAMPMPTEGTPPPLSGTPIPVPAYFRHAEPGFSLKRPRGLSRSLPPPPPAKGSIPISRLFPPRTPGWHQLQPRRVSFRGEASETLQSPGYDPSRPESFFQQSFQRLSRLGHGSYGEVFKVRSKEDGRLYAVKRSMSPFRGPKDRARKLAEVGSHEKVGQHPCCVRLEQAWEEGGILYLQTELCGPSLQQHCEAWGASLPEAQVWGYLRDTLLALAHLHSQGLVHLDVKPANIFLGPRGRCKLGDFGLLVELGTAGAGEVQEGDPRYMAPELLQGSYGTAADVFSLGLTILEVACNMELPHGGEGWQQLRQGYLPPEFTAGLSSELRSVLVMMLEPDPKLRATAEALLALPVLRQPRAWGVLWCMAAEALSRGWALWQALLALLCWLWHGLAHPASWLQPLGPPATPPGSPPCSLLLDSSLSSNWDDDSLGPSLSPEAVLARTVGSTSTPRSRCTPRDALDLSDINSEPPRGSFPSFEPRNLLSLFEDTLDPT
Note: in the data inactive means no Kd found up to 30 µM.

Chain of DNA topoisomerase 2-beta (Q02880 whole entry): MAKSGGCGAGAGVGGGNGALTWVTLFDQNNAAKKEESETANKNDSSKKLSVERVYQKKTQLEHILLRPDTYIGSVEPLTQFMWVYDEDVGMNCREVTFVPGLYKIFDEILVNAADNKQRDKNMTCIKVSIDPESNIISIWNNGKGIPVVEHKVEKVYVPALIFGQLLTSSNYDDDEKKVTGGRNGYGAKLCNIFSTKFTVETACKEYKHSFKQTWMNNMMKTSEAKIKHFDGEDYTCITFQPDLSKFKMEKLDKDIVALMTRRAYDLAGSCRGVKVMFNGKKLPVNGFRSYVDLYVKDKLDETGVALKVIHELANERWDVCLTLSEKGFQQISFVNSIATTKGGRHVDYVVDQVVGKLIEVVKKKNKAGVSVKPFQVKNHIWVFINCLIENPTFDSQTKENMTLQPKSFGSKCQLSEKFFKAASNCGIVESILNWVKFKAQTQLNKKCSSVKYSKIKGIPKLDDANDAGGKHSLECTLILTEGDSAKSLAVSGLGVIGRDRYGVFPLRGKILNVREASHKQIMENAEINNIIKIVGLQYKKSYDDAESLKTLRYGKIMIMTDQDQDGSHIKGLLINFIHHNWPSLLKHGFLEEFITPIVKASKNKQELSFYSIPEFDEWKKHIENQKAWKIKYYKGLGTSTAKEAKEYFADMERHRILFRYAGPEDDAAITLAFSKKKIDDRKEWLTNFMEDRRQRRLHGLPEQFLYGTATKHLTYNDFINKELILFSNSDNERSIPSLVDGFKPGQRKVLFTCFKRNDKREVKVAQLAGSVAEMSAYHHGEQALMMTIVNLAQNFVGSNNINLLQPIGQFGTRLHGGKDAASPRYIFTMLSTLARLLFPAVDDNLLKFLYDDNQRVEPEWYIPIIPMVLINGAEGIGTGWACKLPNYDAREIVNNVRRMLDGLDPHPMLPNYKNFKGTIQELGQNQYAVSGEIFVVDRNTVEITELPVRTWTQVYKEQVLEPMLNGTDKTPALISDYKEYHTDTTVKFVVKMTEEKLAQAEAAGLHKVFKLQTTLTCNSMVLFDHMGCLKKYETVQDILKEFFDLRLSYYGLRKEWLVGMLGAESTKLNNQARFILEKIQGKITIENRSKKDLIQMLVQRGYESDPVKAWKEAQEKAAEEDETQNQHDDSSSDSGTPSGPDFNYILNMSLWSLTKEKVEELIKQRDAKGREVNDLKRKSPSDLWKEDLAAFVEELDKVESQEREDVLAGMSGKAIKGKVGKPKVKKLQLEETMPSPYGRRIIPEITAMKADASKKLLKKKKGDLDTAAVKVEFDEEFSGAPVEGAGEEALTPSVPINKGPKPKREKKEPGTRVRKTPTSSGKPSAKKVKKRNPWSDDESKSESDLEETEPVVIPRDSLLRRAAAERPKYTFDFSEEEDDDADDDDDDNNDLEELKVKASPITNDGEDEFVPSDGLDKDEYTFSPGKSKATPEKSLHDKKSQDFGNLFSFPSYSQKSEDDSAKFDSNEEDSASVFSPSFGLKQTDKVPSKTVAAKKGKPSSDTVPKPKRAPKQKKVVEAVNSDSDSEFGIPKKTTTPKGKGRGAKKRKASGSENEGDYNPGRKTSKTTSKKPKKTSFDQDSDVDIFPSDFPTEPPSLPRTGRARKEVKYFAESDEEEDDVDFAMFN
Chain of Chromodomain-helicase-DNA-binding protein 4 (Q14839 whole entry): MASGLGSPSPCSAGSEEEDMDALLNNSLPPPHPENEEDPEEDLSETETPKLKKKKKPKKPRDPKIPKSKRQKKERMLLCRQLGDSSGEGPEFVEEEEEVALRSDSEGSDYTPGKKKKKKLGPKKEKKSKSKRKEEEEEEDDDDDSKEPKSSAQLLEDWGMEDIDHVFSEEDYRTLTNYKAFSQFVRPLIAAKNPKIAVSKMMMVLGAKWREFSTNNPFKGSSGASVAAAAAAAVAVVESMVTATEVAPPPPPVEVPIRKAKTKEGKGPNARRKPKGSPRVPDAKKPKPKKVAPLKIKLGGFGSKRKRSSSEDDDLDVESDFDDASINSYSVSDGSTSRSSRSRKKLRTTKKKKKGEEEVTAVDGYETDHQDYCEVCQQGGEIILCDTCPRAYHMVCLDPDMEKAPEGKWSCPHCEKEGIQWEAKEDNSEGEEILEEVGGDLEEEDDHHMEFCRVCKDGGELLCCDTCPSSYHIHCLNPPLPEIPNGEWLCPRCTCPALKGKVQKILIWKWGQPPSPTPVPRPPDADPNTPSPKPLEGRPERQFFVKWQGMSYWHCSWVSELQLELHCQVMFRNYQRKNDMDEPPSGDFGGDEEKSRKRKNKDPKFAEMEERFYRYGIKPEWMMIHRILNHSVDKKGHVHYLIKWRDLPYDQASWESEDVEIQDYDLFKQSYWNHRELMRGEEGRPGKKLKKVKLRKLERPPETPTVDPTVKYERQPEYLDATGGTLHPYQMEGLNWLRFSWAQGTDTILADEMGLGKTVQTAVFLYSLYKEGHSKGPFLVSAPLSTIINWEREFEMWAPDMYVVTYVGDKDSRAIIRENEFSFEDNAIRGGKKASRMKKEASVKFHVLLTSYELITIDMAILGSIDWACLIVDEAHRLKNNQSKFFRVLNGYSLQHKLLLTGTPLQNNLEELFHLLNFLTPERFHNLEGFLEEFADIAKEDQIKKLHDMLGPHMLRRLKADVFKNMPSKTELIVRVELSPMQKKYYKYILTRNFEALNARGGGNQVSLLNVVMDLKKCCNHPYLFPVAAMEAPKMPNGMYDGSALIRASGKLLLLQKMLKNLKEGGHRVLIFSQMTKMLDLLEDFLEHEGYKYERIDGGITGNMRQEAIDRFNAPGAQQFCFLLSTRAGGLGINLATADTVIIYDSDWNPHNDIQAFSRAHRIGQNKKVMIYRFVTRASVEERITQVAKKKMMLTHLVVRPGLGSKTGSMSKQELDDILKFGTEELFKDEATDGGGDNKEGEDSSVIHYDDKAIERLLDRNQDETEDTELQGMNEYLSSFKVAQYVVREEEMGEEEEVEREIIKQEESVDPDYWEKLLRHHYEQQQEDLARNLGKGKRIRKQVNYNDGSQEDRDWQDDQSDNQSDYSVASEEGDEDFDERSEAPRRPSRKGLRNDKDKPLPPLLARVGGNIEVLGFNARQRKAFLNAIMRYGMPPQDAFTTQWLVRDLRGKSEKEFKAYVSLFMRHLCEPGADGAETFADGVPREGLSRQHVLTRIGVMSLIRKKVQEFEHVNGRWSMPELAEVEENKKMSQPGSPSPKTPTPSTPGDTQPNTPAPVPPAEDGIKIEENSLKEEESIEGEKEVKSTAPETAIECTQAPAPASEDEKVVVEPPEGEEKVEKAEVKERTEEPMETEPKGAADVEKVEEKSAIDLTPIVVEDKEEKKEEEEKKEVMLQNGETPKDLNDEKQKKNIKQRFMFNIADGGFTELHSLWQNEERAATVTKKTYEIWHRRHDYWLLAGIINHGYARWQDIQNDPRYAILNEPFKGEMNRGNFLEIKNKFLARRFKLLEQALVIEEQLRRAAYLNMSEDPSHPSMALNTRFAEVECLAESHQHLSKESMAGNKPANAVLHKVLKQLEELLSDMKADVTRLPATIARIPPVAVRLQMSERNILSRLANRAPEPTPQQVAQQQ
Chain of ATP-dependent RNA helicase DDX3X (O00571 whole entry): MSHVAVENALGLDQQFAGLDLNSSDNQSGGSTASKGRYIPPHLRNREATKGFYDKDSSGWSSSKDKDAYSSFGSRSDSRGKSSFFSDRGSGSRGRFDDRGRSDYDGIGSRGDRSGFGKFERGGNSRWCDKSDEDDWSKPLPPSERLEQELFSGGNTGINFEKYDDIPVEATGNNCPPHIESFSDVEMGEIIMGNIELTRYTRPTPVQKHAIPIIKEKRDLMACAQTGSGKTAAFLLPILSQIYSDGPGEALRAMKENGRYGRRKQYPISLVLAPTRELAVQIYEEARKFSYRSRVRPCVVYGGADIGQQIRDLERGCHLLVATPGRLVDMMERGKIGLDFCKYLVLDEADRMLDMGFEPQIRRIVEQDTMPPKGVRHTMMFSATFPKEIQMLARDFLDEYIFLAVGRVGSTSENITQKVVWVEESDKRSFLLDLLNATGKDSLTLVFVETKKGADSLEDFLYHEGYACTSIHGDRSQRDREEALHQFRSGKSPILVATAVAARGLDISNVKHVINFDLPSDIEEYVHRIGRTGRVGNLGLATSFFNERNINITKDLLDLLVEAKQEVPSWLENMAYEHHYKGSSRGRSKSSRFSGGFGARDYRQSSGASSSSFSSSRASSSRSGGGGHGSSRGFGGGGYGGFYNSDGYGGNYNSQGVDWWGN
Chain of Serine/threonine-protein kinase/endoribonuclease IRE2 (Q76MJ5 whole entry): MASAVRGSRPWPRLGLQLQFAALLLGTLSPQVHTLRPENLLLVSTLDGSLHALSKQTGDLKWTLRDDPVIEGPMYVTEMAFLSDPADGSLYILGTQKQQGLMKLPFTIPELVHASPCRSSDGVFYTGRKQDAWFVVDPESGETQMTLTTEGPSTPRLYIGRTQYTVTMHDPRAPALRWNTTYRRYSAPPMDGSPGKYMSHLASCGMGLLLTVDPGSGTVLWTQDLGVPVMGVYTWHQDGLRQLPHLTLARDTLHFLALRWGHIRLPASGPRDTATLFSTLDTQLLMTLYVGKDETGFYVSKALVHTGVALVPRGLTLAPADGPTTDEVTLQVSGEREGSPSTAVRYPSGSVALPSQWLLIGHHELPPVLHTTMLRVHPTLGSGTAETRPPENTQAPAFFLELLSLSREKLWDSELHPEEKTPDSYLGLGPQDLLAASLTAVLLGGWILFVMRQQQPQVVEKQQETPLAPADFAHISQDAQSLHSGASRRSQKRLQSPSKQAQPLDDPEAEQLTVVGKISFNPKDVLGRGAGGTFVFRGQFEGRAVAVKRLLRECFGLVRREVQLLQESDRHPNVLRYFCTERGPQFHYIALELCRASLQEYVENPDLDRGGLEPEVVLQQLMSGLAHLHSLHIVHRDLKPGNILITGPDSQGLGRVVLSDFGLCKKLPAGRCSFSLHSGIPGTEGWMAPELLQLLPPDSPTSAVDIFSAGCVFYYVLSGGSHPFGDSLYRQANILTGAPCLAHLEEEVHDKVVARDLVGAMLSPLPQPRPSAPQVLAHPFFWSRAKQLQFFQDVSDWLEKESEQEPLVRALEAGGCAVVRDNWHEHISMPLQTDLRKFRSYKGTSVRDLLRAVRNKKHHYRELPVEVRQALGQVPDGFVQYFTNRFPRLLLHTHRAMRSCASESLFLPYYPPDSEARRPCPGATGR

Consider `C[C@H]1CNCCCN1S(=O)(=O)c1cccc2cncc(F)c12`, for which the Kd is > 30 µM (inactive) in experiment [1]; > 30 µM (inactive) in experiment [2]; 0.083 µM (active) in experiment [3]; > 30 µM (inactive) in experiment [4]; > 30 µM (inactive) in experiment [5]; > 30 µM (inactive) in experiment [6]. In addition, the Kd (in [7]; in [8]; on DNA topoisomerase 2-beta; in experiment [9]; in [10]; in experiment [11]) was > 30 µM (inactive) in each case. Further, the Kd in experiment [12] and in experiment [13] was > 30 µM (inactive) in each case.

Take `CCNC(=O)C#Cc1ccc2c(c1)NC(=O)/C2=C(\Nc1ccc(CN(C)C)cc1)c1ccccc1`: the Kd in experiment [1] was > 30 µM (inactive); in [2], 1.48 µM (active); in experiment [3], > 30 µM (inactive); in experiment [4], > 30 µM (inactive); in [5] it was > 30 µM (inactive); in experiment [6], > 30 µM (inactive). In addition, the Kd in experiment [7] is 0.875 µM (active); in [8], > 30 µM (inactive); on DNA topoisomerase 2-beta, > 30 µM (inactive); in experiment [9], > 30 µM (inactive); in [10], > 30 µM (inactive); in [11], > 30 µM (inactive). The Kd in [12] and in experiment [13] was > 30 µM (inactive) each time.

Take `Cc1nc2cc(-c3nn(C(C)C)c4ncnc(N)c34)ccc2o1`: the Kd in [1], in experiment [2], in experiment [3], in experiment [4], in [5] and in experiment [6] was > 30 µM (inactive) throughout. The Kd is > 30 µM (inactive) in experiment [7]; > 30 µM (inactive) in experiment [8]; > 30 µM (inactive) on DNA topoisomerase 2-beta; 0.123 µM (active) in [9]; > 30 µM (inactive) in experiment [10]; > 30 µM (inactive) in experiment [11]. In addition, the Kd in [12] and in [13] was > 30 µM (inactive) throughout.

Regarding `COCc1c(-c2ccc(NC(=O)Nc3cc(C(F)(F)F)ccc3F)c(F)c2)c2c(N)ncnn2c1CN1CCOCC1`, the Kd in experiment [1], in experiment [2], in experiment [3], in [4], in experiment [5] and in experiment [6] was > 30 µM (inactive) in each case. In addition, the Kd (in experiment [7]; in experiment [8]; at DNA topoisomerase 2-beta; in experiment [9]; in experiment [10]; in [11]) was > 30 µM (inactive) throughout. For the same molecule, the Kd in experiment [12] and in experiment [13] was > 30 µM (inactive) each time.

For `Nc1ncnc2c1c(-c1cccc(OCc3ccccc3)c1)cn2[C@H]1C[C@@H](CN2CCC2)C1` [AEW-541], the Kd is > 30 µM (inactive) in [1]; > 30 µM (inactive) in experiment [2]; 18.3 µM (active) in [3]; > 30 µM (inactive) in experiment [4]; > 30 µM (inactive) in experiment [5]; > 30 µM (inactive) in experiment [7]. Also, the Kd is > 30 µM (inactive) in experiment [8]; > 30 µM (inactive) on DNA topoisomerase 2-beta; 1.44 µM (active) in experiment [9]; > 30 µM (inactive) in [10]; > 30 µM (inactive) in experiment [11]; > 30 µM (inactive) in [12]. The Kd in experiment [13] is > 30 µM (inactive).

In the case of `Cc1nc2cc(-n3ncc(C(=O)c4cc5ccccc5[nH]4)c3N)ccc2[nH]1` [FGFR INHIBITOR DEBIO 1347], the Kd in [1], in [2], in experiment [3], in [4], in experiment [5] and in experiment [6] was > 30 µM (inactive) in each case. The Kd (in [7]; in experiment [8]; on DNA topoisomerase 2-beta; in experiment [9]; in experiment [11]; in experiment [12]) was > 30 µM (inactive) each time. Further, in experiment [13], the Kd is > 30 µM (inactive).

Consider `CNC(=O)c1nn(C)c2c1C(C)(C)Cc1cnc(Nc3ccc(N4CCN(C)CC4)cc3)nc1-2` [MILCICLIB], for which the Kd in experiment [1] is > 30 µM (inactive); in experiment [2], 3.75 µM; in experiment [3], > 30 µM (inactive); in [4] it was > 30 µM (inactive); in experiment [5], > 30 µM (inactive); in experiment [7], 0.212 µM (active). For the same molecule, the Kd (in experiment [8]; at DNA topoisomerase 2-beta; in experiment [9]; in experiment [10]; in experiment [11]; in [12]) was > 30 µM (inactive) each time. Further, the Kd in experiment [13] is > 30 µM (inactive).

Regarding `CO[C@H]1C[C@@H]2CC[C@@H](C)[C@@](O)(O2)C(=O)C(=O)N2CCCC[C@H]2C(=O)O[C@H]([C@H](C)C[C@@H]2CC[C@@H](OC(=O)C(C)(CO)CO)[C@H](OC)C2)CC(=O)[C@H](C)/C=C(\C)[C@@H](O)[C@@H](OC)C(=O)[C@H](C)C[C@H](C)/C=C/C=C/C=C/1C` [TEMSIROLIMUS], the Kd in experiment [1], in experiment [2], in experiment [3], in [4], in experiment [5] and in [6] was > 30 µM (inactive) in each case. Besides, the Kd (in experiment [7]; in [8]; at DNA topoisomerase 2-beta; in experiment [9]; in [11]; in experiment [12]) was > 30 µM (inactive) each time. Moreover, the Kd in experiment [13] was > 30 µM (inactive).

One may read the Kd as the constant that tells how readily two partners part at equilibrium.
